Experimental data as given in PMC7531004, “Discovery of gramicidin A analogues with altered activities by multidimensional screening of a one-bead-one-compound library” (Nature Communications, 2020).
Where a SMILES comes first, the peptide text is derived from it. [ ]: non-standard residue; d: D form. The star is where a group is joined. NHCH2CH2OH = OCCN*; For = O=C*

Key:
[1] = tested on: P388 mouse leukemia cells; conditions: 92 h
In short: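 Peptide stocks diluted 250× in growth medium; P388 cells 1 × 10^4 cells/mL final; 37 °C, 5% CO2, 92 h. WST-1 + 1-methoxy PMS, 4 h, A415. Output: % viability.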

[2] = tested on: Streptococcus pyogenes SSI-9; experiment: Antibacterial activity assay of bead-derived peptides (three concentrations); assay type: cell-based; parameters: key: +++: inhibition by the 640-fold diluted peptide solution; ++: inhibition by the 160-fold diluted solution; +: inhibition by the 40-fold diluted solution; -: no inhibition; conditions: S. pyogenes, bead-derived peptide solution, three concentrations
In short: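 Growth inhibition scored visually as precipitated bacteria after 37 °C, 18 h incubation. Streptococcus pyogenes SSI-9 inoculum of 2 × 10^5 CFU in Ca2+/Mg2+-adjusted Mueller Hinton broth plus 5% laked horse blood; peptides tested at three levels: stock, 4-fold and 16-fold DMSO dilutions.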

[3] = H+/Na+ transport assay of bead-derived peptides (one-point); assay type: biochemical; parameters: key: relative activity; mean of two control wells = 1.00; conditions: bead-derived peptide solution, EYPC/EYPG LUVs;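 note: relative to parent gramicidin A activity set to 1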
In short: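 Values are normalized fluorescence, with Triton X-100 defining 100% and untreated LUVs 0%, and the two control wells averaging 1.00. Vesicles carried 1.0 mM pyranine and included egg yolk phosphatidylglycerol. Peptides were incubated with them 30 min at room temperature.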

SMILES	cell viability/% [1] [%]	antibacterial activity [2]	H+/Na+ transport activity normalized against the value of 1 (1.00) [3]
CC(C)C[C@@H](NC(=O)[C@H](C)NC(=O)[C@H](NC(=O)[C@H](C)NC(=O)CNC(=O)[C@@H](NC=O)C(C)C)C(C)C)C(=O)N[C@H](C(=O)N[C@@H](C(=O)N[C@@H](Cc1c[nH]c2ccccc12)C(=O)N[C@@H](C(=O)N[C@@H](Cc1c[nH]c2ccccc12)C(=O)N[C@H](CC(C)C)C(=O)N[C@@H](Cc1c[nH]c2ccccc12)C(=O)N[C@H](CC(C)C)C(=O)N[C@@H](Cc1c[nH]c2ccccc12)C(=O)NCCO)C(C)C)[C@H](C)O)C(C)C [compound 11433] (For-VGA[dV]A[dL]V[dT]W[dV]W[dL]W[dL]W-NHCH2CH2OH)	51.1	-	1.38
CNC(=O)C[C@@H](NC(=O)[C@@H](NC(=O)[C@@H](CC(C)C)NC(=O)[C@H](C)NC(=O)[C@@H](CC(C)C)NC(=O)[C@H](C)NC(=O)CNC(=O)[C@@H](NC=O)C(C)C)C(C)C)C(=O)N[C@@H](Cc1c[nH]c2ccccc12)C(=O)N[C@H](CC(C)C)C(=O)N[C@@H](Cc1c[nH]c2ccccc12)C(=O)N[C@@H](C(=O)N[C@@H](Cc1c[nH]c2ccccc12)C(=O)N[C@H](CC(C)C)C(=O)N[C@@H](Cc1c[nH]c2ccccc12)C(=O)NCCO)C(C)C [compound 7400] (For-VGA[dL]A[dL]V[dD](NHMe)W[dL]W[dV]W[dL]W-NHCH2CH2OH)	100.0	-	1.30
CC(C)C[C@@H](NC(=O)[C@H](C)NC(=O)[C@H](NC(=O)[C@H](C)NC(=O)CNC(=O)[C@@H](NC=O)C(C)C)C(C)C)C(=O)N[C@H](C(=O)N[C@@H](C(=O)N[C@@H](Cc1c[nH]c2ccccc12)C(=O)N[C@@H](C(=O)N[C@@H](Cc1c[nH]c2ccccc12)C(=O)N[C@@H](C(=O)N[C@@H](Cc1c[nH]c2ccccc12)C(=O)N[C@@H](C(=O)N[C@@H](Cc1c[nH]c2ccccc12)C(=O)NCCO)C(C)C)C(C)C)C(C)C)C(C)C)C(C)C [compound 8909] (For-VGA[dV]A[dL]V[dV]W[dV]W[dV]W[dV]W-NHCH2CH2OH)	85.9	+	1.04
CC(C)C[C@@H](NC(=O)[C@H](C)NC(=O)CNC(=O)[C@@H](NC=O)C(C)C)C(=O)N[C@@H](C)C(=O)N[C@H](CC(C)C)C(=O)N[C@H](C(=O)N[C@@H](C(=O)N[C@@H](Cc1c[nH]c2ccccc12)C(=O)N[C@@H](C(=O)N[C@@H](Cc1c[nH]c2ccccc12)C(=O)N[C@@H](C(=O)N[C@@H](Cc1c[nH]c2ccccc12)C(=O)N[C@H](CC(C)C)C(=O)N[C@@H](Cc1c[nH]c2ccccc12)C(=O)NCCO)[C@H](C)O)C(C)C)C(C)C)C(C)C [compound 6876] (For-VGA[dL]A[dL]V[dV]W[dV]W[dT]W[dL]W-NHCH2CH2OH)	100.0	-	1.13
CC(C)C[C@@H](NC(=O)[C@H](Cc1c[nH]c2ccccc12)NC(=O)[C@@H](CC(C)C)NC(=O)[C@@H](NC(=O)[C@H](NC(=O)[C@H](C)NC(=O)[C@H](NC(=O)[C@H](C)NC(=O)CNC(=O)[C@@H](NC=O)C(C)C)[C@H](C)O)C(C)C)C(C)C)C(=O)N[C@@H](Cc1c[nH]c2ccccc12)C(=O)N[C@H](CC(C)C)C(=O)N[C@@H](Cc1c[nH]c2ccccc12)C(=O)N[C@@H](C(=O)N[C@@H](Cc1c[nH]c2ccccc12)C(=O)NCCO)C(C)C [compound 4236] (For-VGA[dT]A[dV]V[dL]W[dL]W[dL]W[dV]W-NHCH2CH2OH)	93.0	-	1.43
CNC(=O)C[C@@H](NC(=O)[C@@H](NC(=O)[C@H](NC(=O)[C@H](C)NC(=O)[C@H](NC(=O)[C@H](C)NC(=O)CNC(=O)[C@@H](NC=O)C(C)C)C(C)C)C(C)C)C(C)C)C(=O)N[C@@H](Cc1c[nH]c2ccccc12)C(=O)N[C@H](CC(C)C)C(=O)N[C@@H](Cc1c[nH]c2ccccc12)C(=O)N[C@H](CC(C)C)C(=O)N[C@@H](Cc1c[nH]c2ccccc12)C(=O)N[C@H](CC(C)C)C(=O)N[C@@H](Cc1c[nH]c2ccccc12)C(=O)NCCO [compound 7437] (For-VGA[dV]A[dV]V[dD](NHMe)W[dL]W[dL]W[dL]W-NHCH2CH2OH)	100.0	-	1.11
CNC(=O)C[C@@H](NC(=O)[C@@H](NC(=O)[C@H](NC(=O)[C@H](C)NC(=O)[C@@H](CC(C)C)NC(=O)[C@H](C)NC(=O)CNC(=O)[C@@H](NC=O)C(C)C)C(C)C)C(C)C)C(=O)N[C@@H](Cc1c[nH]c2ccccc12)C(=O)N[C@H](CC(C)C)C(=O)N[C@@H](Cc1c[nH]c2ccccc12)C(=O)N[C@H](CC(C)C)C(=O)N[C@@H](Cc1c[nH]c2ccccc12)C(=O)N[C@@H](C(=O)N[C@@H](Cc1c[nH]c2ccccc12)C(=O)NCCO)C(C)C [compound 8831] (For-VGA[dL]A[dV]V[dD](NHMe)W[dL]W[dL]W[dV]W-NHCH2CH2OH)	81.1	-	1.23
CC(C)C[C@@H](NC(=O)[C@H](C)NC(=O)[C@H](NC(=O)[C@H](C)NC(=O)CNC(=O)[C@@H](NC=O)C(C)C)C(C)C)C(=O)N[C@H](C(=O)N[C@@H](C(=O)N[C@@H](Cc1c[nH]c2ccccc12)C(=O)N[C@H](CC(C)C)C(=O)N[C@@H](Cc1c[nH]c2ccccc12)C(=O)N[C@@H](C(=O)N[C@@H](Cc1c[nH]c2ccccc12)C(=O)N[C@H](CC(C)C)C(=O)N[C@@H](Cc1c[nH]c2ccccc12)C(=O)NCCO)C(C)C)C(C)C)C(C)C [compound 5241] (For-VGA[dV]A[dL]V[dV]W[dL]W[dV]W[dL]W-NHCH2CH2OH)	12.2	++	1.39
CC(C)C[C@@H](NC(=O)[C@H](Cc1c[nH]c2ccccc12)NC(=O)[C@H](NC(=O)[C@H](Cc1c[nH]c2ccccc12)NC(=O)[C@H](NC(=O)[C@H](Cc1c[nH]c2ccccc12)NC(=O)[C@H](NC(=O)[C@@H](NC(=O)[C@H](NC(=O)[C@H](C)NC(=O)[C@H](NC(=O)[C@H](C)NC(=O)CNC(=O)[C@@H](NC=O)C(C)C)C(C)C)C(C)C)C(C)C)C(C)C)C(C)C)C(C)C)C(=O)N[C@@H](Cc1c[nH]c2ccccc12)C(=O)NCCO [compound 10699] (For-VGA[dV]A[dV]V[dV]W[dV]W[dV]W[dL]W-NHCH2CH2OH)	100.0	-	1.09
CC(C)C[C@@H](NC(=O)[C@H](C)NC(=O)[C@H](NC(=O)[C@H](C)NC(=O)CNC(=O)[C@@H](NC=O)C(C)C)C(C)C)C(=O)N[C@H](C(=O)N[C@@H](C(=O)N[C@@H](Cc1c[nH]c2ccccc12)C(=O)N[C@@H](C(=O)N[C@@H](Cc1c[nH]c2ccccc12)C(=O)N[C@H](CC(C)C)C(=O)N[C@@H](Cc1c[nH]c2ccccc12)C(=O)N[C@@H](C(=O)N[C@@H](Cc1c[nH]c2ccccc12)C(=O)NCCO)C(C)C)C(C)C)[C@H](C)O)C(C)C [compound 9633] (For-VGA[dV]A[dL]V[dT]W[dV]W[dL]W[dV]W-NHCH2CH2OH)	100.0	-	1.06
CC(C)C[C@@H](NC(=O)[C@H](C)NC(=O)CNC(=O)[C@@H](NC=O)C(C)C)C(=O)N[C@@H](C)C(=O)N[C@@H](C(=O)N[C@H](C(=O)N[C@H](CC(C)C)C(=O)N[C@@H](Cc1c[nH]c2ccccc12)C(=O)N[C@@H](C(=O)N[C@@H](Cc1c[nH]c2ccccc12)C(=O)N[C@@H](C(=O)N[C@@H](Cc1c[nH]c2ccccc12)C(=O)N[C@@H](C(=O)N[C@@H](Cc1c[nH]c2ccccc12)C(=O)NCCO)[C@H](C)O)C(C)C)C(C)C)C(C)C)C(C)C [compound 12984] (For-VGA[dL]A[dV]V[dL]W[dV]W[dV]W[dT]W-NHCH2CH2OH)	81.1	-	1.08
CC(C)C[C@@H](NC(=O)[C@H](C)NC(=O)CNC(=O)[C@@H](NC=O)C(C)C)C(=O)N[C@@H](C)C(=O)N[C@@H](C(=O)N[C@H](C(=O)N[C@@H](C(=O)N[C@@H](Cc1c[nH]c2ccccc12)C(=O)N[C@@H](C(=O)N[C@@H](Cc1c[nH]c2ccccc12)C(=O)N[C@H](CC(C)C)C(=O)N[C@@H](Cc1c[nH]c2ccccc12)C(=O)N[C@@H](C(=O)N[C@@H](Cc1c[nH]c2ccccc12)C(=O)NCCO)C(C)C)C(C)C)C(C)C)C(C)C)C(C)C [compound 5393] (For-VGA[dL]A[dV]V[dV]W[dV]W[dL]W[dV]W-NHCH2CH2OH)	100.0	+	1.32
CC(C)C[C@@H](NC(=O)[C@H](Cc1c[nH]c2ccccc12)NC(=O)[C@H](NC(=O)[C@@H](NC(=O)[C@H](NC(=O)[C@H](C)NC(=O)[C@H](NC(=O)[C@H](C)NC(=O)CNC(=O)[C@@H](NC=O)C(C)C)C(C)C)C(C)C)C(C)C)[C@H](C)O)C(=O)N[C@@H](Cc1c[nH]c2ccccc12)C(=O)N[C@@H](C(=O)N[C@@H](Cc1c[nH]c2ccccc12)C(=O)N[C@@H](C(=O)N[C@@H](Cc1c[nH]c2ccccc12)C(=O)NCCO)C(C)C)C(C)C [compound 8596] (For-VGA[dV]A[dV]V[dT]W[dL]W[dV]W[dV]W-NHCH2CH2OH)	56.2	-	1.07
